Data on four molecules can be found in PMC9052873 (Journal of medicinal chemistry, 2020).

Test [1] concerns the target PNMT. As to conditions: read-out: Ki^PEA; ref [85]; cited from earlier work.
Test [2] deals with T1, human PNMT (hPNMT) (Homo sapiens, UniProt P11086).
T1 sequence (P11086 1-282): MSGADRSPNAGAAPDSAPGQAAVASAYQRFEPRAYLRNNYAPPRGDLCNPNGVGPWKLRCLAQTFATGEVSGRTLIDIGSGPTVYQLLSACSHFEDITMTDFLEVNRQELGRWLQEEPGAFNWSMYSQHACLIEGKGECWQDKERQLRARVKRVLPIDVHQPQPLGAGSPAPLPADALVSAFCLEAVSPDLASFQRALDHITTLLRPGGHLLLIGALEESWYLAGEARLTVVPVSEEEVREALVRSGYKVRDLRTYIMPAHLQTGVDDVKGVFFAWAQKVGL
In words: radiochemical assay for hPNMT inhibitory potency.

In test [3] the target is T2, bovine PNMT (Bos taurus, UniProt P10938).
T2 sequence (P10938 1-283): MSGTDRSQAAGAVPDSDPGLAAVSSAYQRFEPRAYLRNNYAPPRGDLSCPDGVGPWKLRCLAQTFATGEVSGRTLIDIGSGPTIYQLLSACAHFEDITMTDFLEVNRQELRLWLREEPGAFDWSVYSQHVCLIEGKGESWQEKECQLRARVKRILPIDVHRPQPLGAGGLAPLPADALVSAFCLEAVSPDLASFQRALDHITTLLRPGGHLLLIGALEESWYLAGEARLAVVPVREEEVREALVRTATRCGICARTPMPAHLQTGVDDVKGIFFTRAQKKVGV
In words: PNMT inhibition, bovine enzyme. It counts as biochemical.

Test [4] concerns the target T2, bovine PNMT. The note with it: read-out: PNMT Kis^PEA; bovine enzyme; ref [16]; cited from earlier work.

Read-outs that look alike come from different tables or passages of the source.

Consider `c1ccc2c(c1)CCNC2` [Compound 10, 1,2,3,4-tetrahydroisoquinoline], for which, in test [1], the Ki is 10 µM.
As to `NCC1Cc2ccccc2CN1` (centres unmarked) [Compound 14], the “greater potency as an inhibitor of hPNMT than 13” value in test [2] (14 (aminomethyl) versus 13 (aminocarbonyl)) is given as “over 20 fold”. The same molecule showed a Ki in test [3] of 1400 nM.
For tris(hydroxymethyl)amino methane, in test [2] (buffer component, prompted a switch to phosphate buffer), the “inhibition in PNMT assays” value is on record as “inhibition being observed”.
As to `NC(=O)C1Cc2ccccc2CN1` (centres unmarked) [Compound 13], in test [4], the Ki is 31 µM.
